Test results reported in patent US11780851B2, “LRRK2 inhibitors” (H. Lundbeck A/S, priority 2021, dated 2023).
Where two headings read alike, the source gives them in different places.

What was measured:
[1] = target: T1, LRRK2 WT (Homo sapiens, UniProt Q5S007); test: LRRK2 wild-type kinase activity assay (LanthaScreen TR-FRET); assay type: biochemical; settings: 1 nM LRRK2 WT, 1.3 mM ATP, 3.5 h at 30° C.; n≥2 tests
T1 construct: comprises residue 970 to 2527 of the full length human wild-type LRRK2 kinase; purchased Invitrogen (Life Technologies Corporation)
Experimental: (§1) LRRK2 kinase activity was measured using a LanthaScreen kinase activity assay available from Invitrogen (Life Technologies Corporation). The assay is a homogeneous time resolved-fluorescence resonance energy transfer (TR-FRET) assay that measures phosphorylation of a fluorescein-labelled peptide substrate Fluorescein-ERM LRRKtide obtainable from Life Technologies Corporation as a result of LRRK2 kinase activity. The phosphorylated peptide is recognized by a terbium-labelled phospho-specific anti-LRRKtide antibody (pLRRKtide antibody), obtainable from Life Technologies Corporation and, subsequently, the phosphorylated LRRKtide can be quantified by the extent of TR-FRET between the terbium donor and fluorescein acceptor. The LRRK2 kinase was obtained from Invitrogen (Life Technologies Corporation) and comprises residue 970 to 2527 of the full length human wild-type LRRK2 kinase, or a similar sequence with the G2019S mutation. As discussed above, this mutation increases the kinase activity relative to the wild type. The kinase reactions were performed in a 20 μL volume in 384-well plates. […] The mixture was further incubated for 30 minutes at RT. […] The measurement was repeated 30 times for fluorescein and 30 times for terbium emission with a 1000 μs time window between repeats. TR-FRET measurements were performed on a Biotek Synergy plate. The TR-FRET signal was calculated as the emission-ratio at 520 nm over 495 nm. The TR-FRET ratio readout for test compounds was normalized to 0% inhibition corresponding to TR-FRET ratio measured in control wells with no inhibition of the kinase activity and 100% inhibition corresponding to TR-FRET ratio measured in control wells with inhibitor. […] C is the IC50 value and D is the Hill slope coefficient. IC50 estimates were obtained from independent experiment and the logarithmic average was calculated.

[2] = Hepatocyte intrinsic clearance assay; assay type: in vitro ADME, human; settings: human, pooled donor, cryopreserved hepatocytes, pH 7.4, 0.1 μM, 2 h at 37° C., 1×10^6 hepatocytes/mL; * measured on 3 separate occasions, ** on a single occasion
Experimental: Test compounds (final concentration 0.1 μM, 0.05% organic) were incubated for 2 h at 37° C., with shaking, in supplemented Leibovitz L-15 media (pH7.4) containing commercially sourced, pooled donor, cryopreserved hepatocytes (final concentration 1×10^6 hepatocytes/m L). The CLint reactions (350 μL) were initiated by addition of test compound. Aliquots (25 μL) were taken at 1, 5, 10, 15, 30, 60, 90 and 120 minutes and then protein crashed with ice-cold acetonitrile containing internal standard (150 μL) then centrifuged (1960 g for 20 minutes at 4° C.). Supernatant was diluted (1:4) with deionized water then analyzed by liquid chromatography (LC)-tandem mass spectrometry (MS/MS). The intrinsic clearances (CLint) were calculated from the slope (k) of the linear regressions of percentages of compound remaining in incubation against incubation time, according to equations 2 and 3.

[3] = target: T2, LRRK2 G2019S (Homo sapiens, UniProt Q5S007, G2019S); test: LRRK2 G2019S kinase activity assay (LanthaScreen TR-FRET); assay type: biochemical; settings: 250 pM LRRK2 G2019S, 1.3 mM ATP, 3 h at 30° C.; n≥2 tests
T2 construct: purchased Invitrogen (Life Technologies Corporation)
Experimental: as §1

[4] = Free fraction in plasma (equilibrium dialysis); assay type: in vitro ADME, male Sprague-Dawley rat; settings: rat plasma, 1 μM, 5 h at 37° C.
Experimental: The free fractions in male Sprague-Dawley rat or female Gottingen minipig plasma (fuplasma) and rat brain homogenate (fubrain) were determined by equilibrium dialysis using 96-well HTD-dialysis plates with dialysis membranes (molecular weight cut off 12-14 KDa). One side of the HTD-dialysis plate was loaded with matrix (plasma or brain homogenate) and the other side with buffer (100 mM sodium phosphate buffer, pH 7.4). Test compounds were dissolved in DMSO then spiked (5 μL of 0.2 mM) into blank (995 μL) plasma or diluted brain homogenate (1:4 ratio in phosphate buffer) giving a final nominal concentration 1 μM (≤0.5% DMSO). The matrices were loaded into respective chambers and equilibrated against phosphate buffer for 5 h at 37° C. (in a humidified air incubator with 5% CO2 with shaking). Samples from both chambers (buffer and plasma or brain homogenate) were aliquoted to fresh 96-well polypropylene plates then matrix matched using an equal volume of opposite blank matrix before extraction with cold solvent (3 volumes acetonitrile) containing an appropriate bioanalytical internal standard. After centrifugation (20 min, 3200 g, 4° C.) the supernatants were diluted with appropriate volumes of water and compound concentrations were quantified by LC/MS-MS against matrix matched calibration standards. The fuplasma and fubrain were calculated as a percent free according to equation 4 below.
Where [F] is the analyte concentration on the buffer (receiver) side of the membrane; [T] is the analyte concentration on the plasma or brain (donor) side of the membrane; [TO] is the analyte concentration in the plasma or brain sample at time zero; D is matrix dilution factor which is determined as 4 for brain matrix and 1 for plasma matrix in these assays.

[5] = Rat B/P (brain disposition); assay type: in vivo, male Sprague-Dawley rats; settings: male, Sprague-Dawley; for concentration at 1 h / Kp uu at 1 h / Kp at 1 h: time point 1.0 h
Experimental: Brain disposition was evaluated for each compound in male Sprague-Dawley rats (n=3, standard body weight). […] Isolated plasma and brain homogenates were extracted by standard protein precipitation in acetonitrile, containing internal standard, followed by LC-MS/MS analysis using an optimized analytical method. Concentrations of test compound in plasma and brain were quantified against matrix matched calibration standards. The total plasma and brain concentration data are presented in Table 7 alongside the calculated brain Kp (total brain concentration:total plasma concentration ratio).

[6] = brain, oral gavage 10 mg/kg, mean ± stdev, n = 3, read-out: Total brain concentration
[7] = brain/plasma, oral gavage 10 mg/kg, mean ± stdev, n = 3
[8] = plasma, oral gavage 10 mg/kg, mean ± stdev, n = 3, read-out: Total plasma concentration
[9] = brain/plasma, po, 10 mg/kg, oral gavage 10 mg/kg, fubrain from brain homogenate

T1 sequence (Q5S007 970-2527): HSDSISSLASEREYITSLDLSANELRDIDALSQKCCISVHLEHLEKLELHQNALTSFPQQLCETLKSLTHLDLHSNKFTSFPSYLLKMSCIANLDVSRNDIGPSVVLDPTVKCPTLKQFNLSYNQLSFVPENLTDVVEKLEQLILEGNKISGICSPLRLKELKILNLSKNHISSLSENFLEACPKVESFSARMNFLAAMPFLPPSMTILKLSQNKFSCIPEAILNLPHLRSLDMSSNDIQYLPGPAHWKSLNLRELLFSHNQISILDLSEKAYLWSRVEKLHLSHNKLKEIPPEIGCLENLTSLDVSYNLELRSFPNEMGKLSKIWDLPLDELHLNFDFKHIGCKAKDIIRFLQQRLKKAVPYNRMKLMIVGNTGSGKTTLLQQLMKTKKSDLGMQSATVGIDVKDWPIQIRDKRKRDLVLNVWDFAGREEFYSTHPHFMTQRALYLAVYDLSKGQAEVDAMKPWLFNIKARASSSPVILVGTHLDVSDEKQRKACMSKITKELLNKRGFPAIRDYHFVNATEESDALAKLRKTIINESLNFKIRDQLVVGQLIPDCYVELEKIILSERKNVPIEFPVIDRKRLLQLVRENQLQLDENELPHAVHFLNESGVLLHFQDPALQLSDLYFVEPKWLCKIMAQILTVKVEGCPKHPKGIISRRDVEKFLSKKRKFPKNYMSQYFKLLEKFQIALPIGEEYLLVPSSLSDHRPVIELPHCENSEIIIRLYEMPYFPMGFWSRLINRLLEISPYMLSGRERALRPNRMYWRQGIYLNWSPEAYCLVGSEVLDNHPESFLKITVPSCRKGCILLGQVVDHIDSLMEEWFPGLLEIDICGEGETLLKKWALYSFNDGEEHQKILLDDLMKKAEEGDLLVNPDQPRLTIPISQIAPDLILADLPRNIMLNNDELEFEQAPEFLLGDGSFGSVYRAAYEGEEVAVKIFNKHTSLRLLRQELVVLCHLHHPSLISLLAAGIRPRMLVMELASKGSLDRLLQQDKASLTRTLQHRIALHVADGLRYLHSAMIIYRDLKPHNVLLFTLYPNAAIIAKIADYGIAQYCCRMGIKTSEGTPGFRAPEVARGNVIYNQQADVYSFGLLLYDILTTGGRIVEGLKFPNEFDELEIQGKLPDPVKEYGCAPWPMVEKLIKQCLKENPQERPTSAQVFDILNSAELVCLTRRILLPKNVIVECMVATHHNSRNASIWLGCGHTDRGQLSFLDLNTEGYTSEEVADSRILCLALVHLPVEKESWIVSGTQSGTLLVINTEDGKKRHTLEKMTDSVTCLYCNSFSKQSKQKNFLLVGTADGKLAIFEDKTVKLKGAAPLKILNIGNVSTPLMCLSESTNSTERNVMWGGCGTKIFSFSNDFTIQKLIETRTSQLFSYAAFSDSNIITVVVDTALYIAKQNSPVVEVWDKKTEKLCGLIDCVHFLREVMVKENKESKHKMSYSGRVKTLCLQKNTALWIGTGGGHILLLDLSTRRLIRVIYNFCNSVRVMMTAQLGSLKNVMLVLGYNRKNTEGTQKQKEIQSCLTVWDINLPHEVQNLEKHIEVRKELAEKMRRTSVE
T2 sequence (Q5S007 970-2527 G2019S): as the sequence (Q5S007 970-2527) above, with G1050S counted along it

SMILES	IC50 [1] [nM]	CLint scaled at 0.1 μM [2] [mL/min/kg]	IC50 [3] [nM]	fuplasma (% free) [4] [% free]	concentration at 1 h [5, 6] [ng/g]	Kp at 1 h [5, 7]	concentration at 1 h [5, 8] [ng/mL]	Kp uu at 1 h [5, 9]	other results
Cc1c2c(nn1[C@H]1CCCOCC1)OCCCn1nc(Cl)c3cnc(nc31)N2 (single isomer, unassigned) [Example 29, (−)-(R) or (S)-8-Chloro-3-methyl-2-(oxepan-4-yl)-2,4,12,13-tetrahydro-11H-5,7-(azenometheno)dipyrazolo[3,4-b:5′,1′-g][1]oxa[4,6,8]triazacycloundecine]	14	6.33	4.3						
Cc1c2c(nn1C1CCOCC1)OCCCn1nc(C3CC3)c3cnc(nc31)N2 [Example 7, 8-Cyclopropyl-3-methyl-2-(tetrahydro-2H-pyran-4-yl)-2,4,12,13-tetrahydro-11H-5,7-(azenometheno)dipyrazolo[3,4-b:5′,1′-g][1]oxa[4,6,8]triazacycloundecine]	210		63	28.7	949 ± 463	0.63 ± 0.23	1550 ± 527		Kp uu at 1 h ([5]; brain/plasma, oral gavage 10 mg/kg, fubrain from brain homogenate): 0.28 ± 0.1
Cc1c2c(nn1[C@@H]1CCOC3(CC3)C1)OCCCn1nc(Cl)c3cnc(nc31)N2 (single isomer, unassigned) [Example 53, (+)-(R) or (S)-8-Chloro-3-methyl-2-(4-oxaspiro[2.5]octan-7-yl)-2,4,12,13-tetrahydro-11H-5,7-(azenometheno)dipyrazolo[3,4-b:5′,1′-g][1]oxa[4,6,8]triazacycloundecine]	3.2		1.3	17.1					concentration at 1 h ([5]; brain, oral gavage 5 mg/kg, mean ± stdev, n = 3, read-out: Total brain concentration): 363 ± 138 ng/g; Kp uu at 1 h ([5]; brain/plasma, oral gavage 5 mg/kg, fubrain from brain homogenate): 0.65 ± 0.06; Kp at 1 h ([5]; brain/plasma, oral gavage 5 mg/kg, mean ± stdev, n = 3): 1.77 ± 0.16; concentration at 1 h ([5]; plasma, oral gavage 5 mg/kg, mean ± stdev, n = 3, read-out: Total plasma concentration): 203 ± 67 ng/mL
Clc1nn2c3nc(ncc13)Nc1c(nn(C3CCOCC3)c1C1CC1)OCCC2 [Example 10, 8-Chloro-3-cyclopropyl-2-(tetrahydro-2H-pyran-4-yl)-2,4,12,13-tetrahydro-11H-5,7-(azenometheno)dipyrazolo[3,4-b:5′,1′-g][1]oxa[4,6,8]triazacycloundecine]	19		6.2	30.2	502 ± 92	1.62 ± 0.16	314 ± 83	0.38 ± 0.04	
[2H]C([2H])([2H])c1c2c(nn1[C@@H]1CCOC[C@H]1F)OCCCn1nc(Cl)c3cnc(nc31)N2 (single isomer, unassigned) [Example 62, (−)-8-Chloro-2-((3R,4S) or (3S,4R)-3-fluorotetrahydro-2H-pyran-4-yl)-3-(methyl-d3)-2,4,12,13-tetrahydro-11H-5,7-(azenometheno)dipyrazolo[3,4-b:5′,1′-g][1]oxa[4,6,8]triazacycloundecine]	17	< 4	5.9						
[2H]C([2H])([2H])c1c2c(nn1[C@H]1CCCOCC1)OCCCn1nc(Cl)c3cnc(nc31)N2 (single isomer, unassigned) [Example 58, (+)-(R) or (S)-8-Chloro-3-(methyl-d3)-2-(oxepan-4-yl)-2,4,12,13-tetrahydro-11H-5,7-(azenometheno)dipyrazolo[3,4-b:5′,1′-g][1]oxa[4,6,8]triazacycloundecine]	19	5	7						
[2H]C([2H])([2H])c1c2c(nn1C1([2H])CCOCC1)OCCCn1nc(Cl)c3cnc(nc31)N2 [Example 15, 8-Chloro-3-(methyl-d3)-2-(tetrahydro-2H-pyran-4-yl-4-d)-2,4,12,13-tetrahydro-11H-5,7-(azenometheno)dipyrazolo[3,4-b:5′,1′-g][1]oxa[4,6,8]triazacycloundecine]	6.8	4	2.4						
Cc1c2c(nn1[C@H]1CCOC[C@]1(C)F)OCCCn1nc(Cl)c3cnc(nc31)N2 (single isomer, unassigned) [Example 47, (+)-8-Chloro-2-((3R,4S) or (3S,4R)-3-Fluoro-3-methyltetrahydro-2H-pyran-4-yl)-3-methyl-2,4,12,13-tetrahydro-11H-5,7-(azenometheno)dipyrazolo[3,4-b:5′,1′-g][1]oxa[4,6,8]triazacycloundecine]	13		3.1	24.8					concentration at 0.5 h ([5]; brain, oral gavage 5 mg/kg, time point 0.5 h, mean ± stdev, n = 3, read-out: Total brain concentration): 235 ± 119 ng/g; Kp uu at 0.5 h ([5]; brain/plasma, oral gavage 5 mg/kg, time point 0.5 h, fubrain from brain homogenate): 0.57 ± 0.17; Kp at 0.5 h ([5]; brain/plasma, oral gavage 5 mg/kg, time point 0.5 h, mean ± stdev, n = 3): 2.69 ± 0.83; concentration at 0.5 h ([5]; plasma, oral gavage 5 mg/kg, time point 0.5 h, mean ± stdev, n = 3, read-out: Total plasma concentration): 83 ± 27 ng/mL
Cc1c2c(nn1[C@H]1CC[C@H](F)CC1)OCCCn1nc(Cl)c3cnc(nc31)N2 [Example 25, 8-Chloro-2-((1r,4r)-4-fluorocyclohexyl)-3-methyl-2,4,12,13-tetrahydro-11H-5,7-(azenometheno)dipyrazolo[3,4-b:5′,1′-g][1]oxa[4,6,8]triazacycloundecine]	16		5.1	12.0	110 ± 18	2.87 ± 0.04	38 ± 6	0.65 ± 0.01	
Cc1c2c(nn1C1CCOCC1)OCCCn1nc(C(F)(F)F)c3cnc(nc31)N2 [Example 5, 3-Methyl-2-(tetrahydro-2H-pyran-4-yl)-8-(trifluoromethyl)-2,4,12,13-tetrahydro-11H-5,7-(azenometheno)dipyrazolo[3,4-b:5′,1′-g][1]oxa[4,6,8]triazacycloundecine]	23		7.4	32.2	744 ± 281	2.19 ± 0.25	336 ± 96	0.29 ± 0.03	
